Measured values reported in patent US6875774B2, “Aza-bridged bicyclic amine derivatives for use as novel cholinergic receptor ligands” (The University of North Carolina, priority 2002, dated 2005).
Structures can show the parent of a compound that is named as a salt. Where two headings read alike, the source gives them in different places.

How the values were obtained:
human M1 receptor [1] = target: T1, human M1 receptor (Homo sapiens, UniProt P11229); test: biochemical; format: binding
T1 construct: made in house; host or cells: Sf9 insect cells (baculovirus)
T1 sequence (P11229 1-460): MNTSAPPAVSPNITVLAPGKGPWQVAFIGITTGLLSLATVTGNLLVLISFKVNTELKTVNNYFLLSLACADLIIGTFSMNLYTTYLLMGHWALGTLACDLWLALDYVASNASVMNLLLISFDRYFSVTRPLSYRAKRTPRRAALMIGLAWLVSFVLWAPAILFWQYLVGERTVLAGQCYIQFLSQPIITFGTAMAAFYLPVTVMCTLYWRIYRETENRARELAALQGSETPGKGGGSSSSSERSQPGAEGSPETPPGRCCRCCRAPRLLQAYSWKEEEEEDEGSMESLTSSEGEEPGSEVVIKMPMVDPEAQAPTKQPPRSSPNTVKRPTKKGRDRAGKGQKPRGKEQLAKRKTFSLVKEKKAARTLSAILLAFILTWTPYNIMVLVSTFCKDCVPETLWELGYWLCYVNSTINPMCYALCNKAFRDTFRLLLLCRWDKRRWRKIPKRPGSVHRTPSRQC

human M2 receptor = target: T2, human M2 receptor (Homo sapiens, UniProt P08172); test: Muscarinic M2 competition binding assay ([3H]QNB, Sf9 membranes)
T2 construct: made in house; host or cells: Sf9 insect cells (baculovirus)
T2 sequence (P08172 1-466): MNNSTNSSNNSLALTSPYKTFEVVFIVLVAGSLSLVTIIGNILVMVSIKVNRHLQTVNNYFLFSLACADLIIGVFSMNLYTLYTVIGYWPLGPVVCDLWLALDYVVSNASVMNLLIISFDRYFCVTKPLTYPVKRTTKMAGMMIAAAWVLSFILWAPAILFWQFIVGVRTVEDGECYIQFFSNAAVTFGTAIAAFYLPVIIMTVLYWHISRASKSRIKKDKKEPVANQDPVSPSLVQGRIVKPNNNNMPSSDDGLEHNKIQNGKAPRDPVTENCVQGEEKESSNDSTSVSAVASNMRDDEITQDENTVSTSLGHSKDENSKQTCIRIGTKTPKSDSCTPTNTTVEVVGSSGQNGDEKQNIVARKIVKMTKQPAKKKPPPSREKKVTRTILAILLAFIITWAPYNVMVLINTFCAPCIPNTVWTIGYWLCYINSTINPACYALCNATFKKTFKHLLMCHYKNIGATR

human M1 receptor [2] = target: T1, human M1 receptor; test: Functional assay of M1 muscarinic receptors ([3H]inositol phosphate accumulation in Sf9 cells); format: cell-based; details: 100 μM carbachol with increasing amounts of compound (FIG. 3)
Method: A functional assay of M1 muscarinic receptors was performed. M1 receptor activity was determined by measuring activation of the Gαq effector, phospholipase C-β. Recombinant human M1 receptor was expressed (48 h) from a baculovirus in Sf9 insect cells. The inositol lipid pool of cells was radiolabeled by incubating the cells overnight in inositol-free Grace's medium containing 1 μCi of myo-[^3H]inositol. The medium was supplemented with 50 mM HEPES, pH 7.4, and 10 mM LiCl (final concentration) and placed in a 27° C. bath for 10 min prior to assay. The assay was initiated by addition of the appropriate ligand(s) and incubations continued for 20 min. The assay was terminated by aspirating the medium and adding 750 μL of ice-cold 50 mM formic acid. After 30 min at 4° C., the samples were neutralized with 250 μL of 150 mM NH4OH. [^3H]Inositol phosphates were isolated by ion exchange chromatography on Dowex AG 1-X8 columns and quantitated by liquid scintillation counting. […] The data shown in FIG. 3 are the results of an experiment performed in triplicate.

SMILES | Ki (human M1 receptor [1]; read-out: hM1 receptor Ki) [µM] | Ki (human M2 receptor; read-out: hM2 receptor Ki) [µM] | Ki fold greater than atropine at the human M2 receptor (human M2 receptor; relative to atropine) [fold] | functional activity at muscarinic receptor (human M1 receptor [2]) | Ki (human M1 receptor [1]; hM1 receptor Ki) [µM] | Ki (human M2 receptor; hM2 receptor Ki) [µM]
CCOC(=O)C1=C(O)[C@H]2CC[C@H](COCc3ccccc3)N(C1)C2 (relative stereo) [Compound 5, exo-8-Benzyloxymethyl-3-ethoxycarbonyl-4-hydroxy-1-azabicyclo[3.3.1]non-3-ene] | 0.203 ± 0.083 | 0.0843 ± 0.0081 | 14 | muscarinic receptor antagonist | – | –
CCOC(=O)C1=C(O)[C@H]2CC[C@@H](COCc3ccccc3)N(C1)C2 (relative stereo) [Compound 6, endo-8-Benzyloxymethyl-3-ethoxycarbonyl-4-hydroxy-1-azabicyclo[3.3.1]non-3-ene] | 10.3 ± 2.38 | 7.35 ± 1.09 | – | – | – | –
CCOC(=O)C1=C(O)C2CCCN(C1)C2 (stereo not drawn) [Compound 4, 3-Ethoxycarbonyl-4-hydroxy-1-azabicyclo[3.3.1]non-3-ene] | – | – | – | – | 1.01 ± 0.068 | 2.85 ± 0.179
CCOC(=O)C1=C(O)C2CCC(CN(C)C)N(C1)C2 (stereo not drawn) [Compound 7, exo-8-Dimethylaminomethyl-3-ethoxycarbonyl-4-hydroxy-1-azabicyclo[3.3.1]non-3-ene] | 16.8 ± 15.2 | 23.9 ± 13.7 | – | – | – | –
CCOC(=O)C1=C(O)C2CCC(CN(C)C)N(C1)C2 (stereo not drawn) [Compound 8, endo-8-Dimethylaminomethyl-3-ethoxycarbonyl-4-hydroxy-1-azabicyclo[3.3.1]non-3-ene] | 12.4 ± 3.74 | 47.6 ± 14.8 | – | – | – | –
O=C1CCN2CCCC1C2 (stereo not drawn) [Compound 9, 1-Azabicyclo[3.3.1]nonan-4-one] | – | – | – | – | > 100 | > 100
CN(C)CC1CCC2CN1CCC2=O (stereo not drawn) [Compound 12, exo-8-Dimethylaminomethyl-1-azabicyclo[3.3.1]nonan-4-one-HCl] | – | – | – | – | > 100 | > 100
CN(C)CC1CCC2CN1CCC2=O (stereo not drawn) [Compound 13, endo-8-Dimethylaminomethyl-1-azabicyclo[3.3.1]nonan-4-one-HCl] | > 100 | > 100 | – | – | – | –
